For two molecules, Plasma lipid level results are on record in ChEMBL document CHEMBL1136343, “Naringenin derivatives as anti-atherogenic agents” (Bioorg Med Chem Lett, 2003).

Holding throughout (type): functional, organism-based
Assay [1] concerns Oryctolagus cuniculus. Put plainly: Plasma HDL cholesterol level was analyzed after administration of 0.1%, wt/wt diet in high cholesterol-fed rabbits after 8 weeks.
Assay [2] relates to Oryctolagus cuniculus. Put plainly: Plasma HDL cholesterol level was analyzed after administration of 0.1%, wt/wt diet in high cholesterol-fed rabbits at 0 weeks.
For assay [3], the system named is Oryctolagus cuniculus. Briefly: Plasma triglyceride level was analyzed after administration of 0.1%, wt/wt diet in high cholesterol-fed rabbits after 0 weeks.
The test system of assay [4] is Oryctolagus cuniculus. Briefly: Plasma triglyceride level was analyzed after administration of 0.1%, wt/wt diet in high cholesterol-fed rabbits after 8 weeks.
The subject of assay [5] is Oryctolagus cuniculus. Briefly: Total plasma cholesterol was analyzed after administration of 0.1%, wt/wt diet in high cholesterol-fed rabbits after 8 weeks.
For assay [6], the system named is Oryctolagus cuniculus. Put plainly: Total plasma cholesterol was analyzed after administration of 0.1%, wt/wt diet in high cholesterol-fed rabbits at 0 weeks.

Turning to `CCCCCCCC/C=C/CCCCCCCC(=O)Oc1cc(O)c2c(c1)OC(c1ccc(O)cc1)CC2=O` (configuration not stated), the Plasma lipid level came out at 78 mg/dL in the assay with Oryctolagus cuniculus [1]; 31 mg/dL in the assay on Oryctolagus cuniculus [2]; 51 mg/dL in the assay on Oryctolagus cuniculus [3]; 105 mg/dL with Oryctolagus cuniculus [4]; 1040 mg/dL with Oryctolagus cuniculus [5]; 51 mg/dL with Oryctolagus cuniculus [6].

Regarding `CCCCCCCCCCCCCCCCC(=O)Oc1cc(O)c2c(c1)OC(c1ccc(O)cc1)CC2=O` (configuration not stated), the Plasma lipid level in the assay on Oryctolagus cuniculus [1] was found to be 93 mg/dL; with Oryctolagus cuniculus [2] it was 34 mg/dL; with Oryctolagus cuniculus [3], 50 mg/dL; with Oryctolagus cuniculus [4], 85 mg/dL; in the assay on Oryctolagus cuniculus [5], 1060 mg/dL; in the assay on Oryctolagus cuniculus [6] it was 53 mg/dL.
